Measurements reported in US20080227096A1, “Assay for response to proteasome inhibitors” (Centenary Institute of Cancer Medicine and Cell Biology, priority 2006, published 2008).
Like-named read-outs stand apart in the source and are kept apart here.

Experiments:
[1] = tested on: relapsed myeloma; conditions: single agent, relapsed disease; cited from earlier work
[2] = tested on: myeloma cells; conditions: direct inhibition of NF-κB; cited from earlier work
[3] = molecular target: P-glycoprotein (P-gp) (Homo sapiens, UniProt P08183); conditions: cyclosporin D derivative; cited from earlier work
[4] = tested on: myeloma; conditions: phase III randomised control trial; cited from earlier work
[5] = tested on: refractory myeloma; conditions: cited from earlier work
[6] = tested on: prostate cancer cell line LNCaP; experiment: Bortezomib resistance (proliferation inhibition) assay, LNCaP; assay type: cell-based, human; conditions: compared with other non-myeloma cell lines, 5 days proliferation
Method: (§1) Cytotoxicity assays were performed essentially as described previously (16). For myeloma cell lines, some modifications were made due to their slow growth rate, non-adherence to the culture plate and sensitivity to sparse plating. Briefly, cells were seeded at 10,000 per well in 96-well plates in RPMI-1640 without phenol red (which interferes with detection of fluorescence). Bortezomib (Millennium Pharmaceuticals; Johnson & Johnson Pharmaceuticals) was applied in a concentration series along the long plate axis. After 5 days of proliferation, cells were permeabilised in situ by adding 5% by volume of 21 X Triton X-100 buffer (10 mM TrisHCl pH 7.4, 5 mM EDTA, 0.1% Triton X-100) and Sybr I Green (Invitrogen) 1:4000. The lysate was mixed thoroughly with a multi-channel pipette. One cycle of freeze and thaw was performed to ensure complete lysis. The fluorescence, measured on a plate reader (Wallac), was proportional to the number of viable cells at the end point. […]
(§2) Briefly, myeloma cell lines, prostate cancer cell lines and lymphoid cell lines were cultured in RPMI-1640 supplemented with 10% foetal calf serum, 100 units/mL penicillin G and 100 μg/mL streptomycin. […] Quantitation of spliced and unspliced XBP-1 and determination of sensitivity to Bortezomib was carried out as previously described (Examples 1.1, 1.2 and 2.1, respectively).

[7] = tested on: RPMI8226 myeloma cells; experiment: Bortezomib resistance (proliferation inhibition) assay, RPMI8226; assay type: cell-based, human
Method: as §1, with “After 5 days of proliferation, cells were permeabilised in situ by adding 5% by volume of 21 X Triton X-100 buffer (10 mM TrisHCl pH 7.4, 5 mM EDTA, 0.1% Triton X-100) and Sybr I Green (Invitrogen) 1:4000. The lysate was mixed thoroughly with a multi-channel pipette. One cycle of freeze and thaw was performed to ensure complete lysis.” left out
as §2
(§3) H929 and RPMI8226 myeloma cells were transduced with virus as follows. […] Total XBP-1 and sensitivity to Bortezomib was determined as previously described (Example 1.1 and Example 2.1, respectively).

[8] = tested on: relapsed myeloma; conditions: patients with relapsed myeloma, randomised trial, cited from earlier work
[9] = molecular target: P-glycoprotein (Homo sapiens, UniProt P08183); conditions: cited from earlier work
[10] = tested on: H929 myeloma cells; experiment: Bortezomib resistance (proliferation inhibition) assay, H929; assay type: cell-based, human
Method: Cytotoxicity assays were performed essentially as described previously (16). For myeloma cell lines, some modifications were made due to their slow growth rate, non-adherence to the culture plate and sensitivity to sparse plating. Briefly, cells were seeded at 10,000 per well in 96-well plates in RPMI-1640 without phenol red (which interferes with detection of fluorescence). Bortezomib (Millennium Pharmaceuticals; Johnson & Johnson Pharmaceuticals) was applied in a concentration series along the long plate axis. After 5 days of proliferation, cells were permeabilised in situ by adding 5% by volume of 21 X Triton X-100 buffer (10 mM TrisHCl pH 7.4, 5 mM EDTA, 0.1% Triton X-100) and Sybr I Green (Invitrogen) 1:4000. The lysate was mixed thoroughly with a multi-channel pipette. One cycle of freeze and thaw was performed to ensure complete lysis. The fluorescence, measured on a plate reader (Wallac), was proportional to the number of viable cells at the end point. The IC50 was determined as the concentration of drug that inhibited proliferation to 50% of the untreated controls (see FIG. 5A-5E).
as §3

[11] = tested on: myeloma; conditions: cited from earlier work

Sequence of P-glycoprotein (P08183 whole entry): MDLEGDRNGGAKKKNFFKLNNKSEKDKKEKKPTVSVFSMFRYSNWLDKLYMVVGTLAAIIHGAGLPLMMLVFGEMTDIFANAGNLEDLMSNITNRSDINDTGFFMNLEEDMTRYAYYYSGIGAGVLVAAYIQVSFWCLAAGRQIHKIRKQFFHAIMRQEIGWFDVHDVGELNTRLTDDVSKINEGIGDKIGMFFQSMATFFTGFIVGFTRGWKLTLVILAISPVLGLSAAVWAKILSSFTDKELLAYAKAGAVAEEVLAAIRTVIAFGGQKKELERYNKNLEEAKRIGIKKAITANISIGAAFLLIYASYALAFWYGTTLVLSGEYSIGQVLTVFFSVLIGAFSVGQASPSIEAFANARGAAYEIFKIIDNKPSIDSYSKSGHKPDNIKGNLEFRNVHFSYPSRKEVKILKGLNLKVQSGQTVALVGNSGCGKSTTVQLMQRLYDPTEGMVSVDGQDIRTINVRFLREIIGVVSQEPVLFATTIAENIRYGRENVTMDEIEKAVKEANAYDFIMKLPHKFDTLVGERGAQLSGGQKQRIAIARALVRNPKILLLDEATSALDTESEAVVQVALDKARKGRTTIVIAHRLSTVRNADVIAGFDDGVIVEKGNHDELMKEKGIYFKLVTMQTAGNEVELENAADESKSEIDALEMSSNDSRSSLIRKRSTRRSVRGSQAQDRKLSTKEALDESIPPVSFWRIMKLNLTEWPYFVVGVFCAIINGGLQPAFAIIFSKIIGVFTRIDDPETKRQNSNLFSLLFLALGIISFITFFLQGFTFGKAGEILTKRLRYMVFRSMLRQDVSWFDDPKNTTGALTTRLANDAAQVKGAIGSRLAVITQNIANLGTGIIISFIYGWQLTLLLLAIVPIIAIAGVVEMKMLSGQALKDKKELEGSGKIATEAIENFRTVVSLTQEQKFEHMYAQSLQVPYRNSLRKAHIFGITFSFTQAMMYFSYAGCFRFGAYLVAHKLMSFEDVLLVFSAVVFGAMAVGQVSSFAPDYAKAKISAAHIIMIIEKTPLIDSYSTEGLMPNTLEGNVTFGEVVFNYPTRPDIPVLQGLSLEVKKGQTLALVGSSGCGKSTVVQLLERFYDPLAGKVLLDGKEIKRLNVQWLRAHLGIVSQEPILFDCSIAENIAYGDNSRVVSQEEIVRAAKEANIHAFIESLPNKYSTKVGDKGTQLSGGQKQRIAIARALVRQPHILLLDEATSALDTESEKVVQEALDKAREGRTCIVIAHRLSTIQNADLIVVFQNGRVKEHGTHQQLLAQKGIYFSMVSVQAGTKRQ
Sequence of P-glycoprotein (P-gp) (P08183 whole entry): as above

Molecule: O=C1CCC(N2C(=O)c3ccccc3C2=O)C(=O)N1 (stereo not drawn) [thalidomide]
- overall response rate [1]: ~32%
- patients with at least very good partial response or complete response [1]: approximately 10%

Molecule: O=C(Nc1cc(Cl)cc2c1[nH]c1cnccc12)c1cccnc1 [PS-1145]
- inhibition of proliferation of myeloma cells [2]: insufficient to completely inhibit the proliferation

Molecule: C/C=C/C[C@@H](C)C(=O)[C@H]1C(=O)N[C@@H](C(C)C)C(=O)N(C)CC(=O)N(C)[C@@H](CC(C)C)C(=O)N[C@@H](C(C)C)C(=O)N(C)[C@@H](CC(C)C)C(=O)N[C@@H](C)C(=O)N[C@H](C)C(=O)N(C)[C@@H](CC(C)C)C(=O)N(C)[C@@H](CC(C)C)C(=O)N(C)[C@@H](C(C)C)C(=O)N1C [Valspodar]
- potency of inhibitory activity on P-gp (relative) [3]: 5 times
- toxicity on addition of the P-gp inhibitor [4]: increased toxicity

Molecule: CC(C)C[C@H](NC(=O)[C@H](Cc1ccccc1)NC(=O)c1cnccn1)B(O)O [Bortezomib]
- side effects ([5]; a significant proportion of patients): fatigue, nausea, diarrhoea, thrombocytopenia, anaemia and peripheral neuropathy
- overall response rate ([5]; refractory cases, phase I and II trials): ~30%
- primary resistance, proportion of relapsed patients ([5]; relapsed patients): about 60%
- sensitivity of cell line to Bortezomib (rank) [6]: most sensitive to Bortezomib of the non-myeloma cell lines
- change of sensitivity to Bortezomib after shRNA knockdown of XBP-1 ([7]; RPMI8226 cells, XBP-1 knockdown): No such effect on sensitivity to Bortezomib
- change of sensitivity to Bortezomib after overexpression of spliced or unspliced XBP-1 cDNA ([7]; RPMI8226 transfectants vs vector control): only a small effect on sensitivity
- overall response rate ([8]; p<0.001): 38%
- complete response rate [8]: 6%
- one-year survival rate [8]: 80%
- P-glycoprotein substrate [9]: not a significant P-glycoprotein substrate
- change of sensitivity to Bortezomib after shRNA knockdown of XBP-1 ([10]; H929 cells, XBP-1 knockdown): decrease in sensitivity to Bortezomib but the change was modest
- sensitivity of cell line to Bortezomib (rank) ([10]; myeloma cell lines, 5 days proliferation): most sensitive to Bortezomib

Molecule: interferon-α
- effect of maintenance therapy on response and survival [11]: marginal effect in terms of prolonging response and survival
